US20250186584A1, “METHODS OF TREATING BILIARY TRACT CANCER USING ANTI-PD-L1 ANTIBODY IN COMBINATION WITH CHEMOTHERAPY” (ASTRAZENECA AB, priority 2022, published 2025)
“And” between values parts separate entries of the source, which are not always exact repeats. Identical values can stand only once. “Also recorded” adds a separate entry of the source.

Columns and labels:
[1] = system: unresectable, locally advanced, or metastatic biliary tract cancer; experiment: TOPAZ-1 phase 3 study: efficacy of durvalumab or placebo plus gemcitabine and cisplatin (OS, PFS, tumor response per RECIST v1.1); type: in vivo, human; conditions: for Difference in overall survival: versus placebo plus gemcitabine and cisplatin; for Objective response rate: investigator assessment, RECIST v1.1, patients with measurable disease at baseline
Description: This is a randomized, double-blind, placebo controlled, multi-center, global, Phase III study which determined the efficacy and safety of first-line treatment with durvalumab in combination with gemcitabine/cisplatin versus placebo in combination with gemcitabine/cisplatin in patients with previously untreated, unresectable, locally advanced, or metastatic BTC.
Arm A: Durvalumab plus gemcitabine/cisplatin combination therapy. Durvalumab 1500 mg via intravenous (IV) infusion q3w, starting on Cycle 1 in combination with cisplatin 25 mg/m^2 and gemcitabine 1000 mg/m^2 (each administered on Days 1 and 8 q3w) up to 8 cycles, followed by durvalumab 1500 mg as monotherapy q4w until clinical progression or RECIST 1.1-defined radiological progressive disease (PD), unless there is unacceptable toxicity, withdrawal of consent, or another discontinuation criterion is met.
Arm B: Placebo plus gemcitabine/cisplatin therapy. Placebo via IV infusion q3w, starting on Cycle 1 in combination with cisplatin 25 mg/m^2 and gemcitabine 1000 mg/m^2 (each administered on Days 1 and 8 q3w) up to 8 cycles, followed by placebo monotherapy q4w until clinical progression or RECIST 1.1-defined radiological PD, unless there is unacceptable toxicity, withdrawal of consent, or another discontinuation criterion is met.
Adults aged ≥18 years with histologically confirmed unresectable, locally advanced, or metastatic adenocarcinoma of the biliary tract, including intrahepatic or extrahepatic cholangiocarcinoma and gallbladder carcinoma, were eligible for inclusion. Eligible patients included those with previously untreated disease that was unresectable or metastatic at initial diagnosis and those who developed recurrent disease >6 months after surgery with curative intent and >6 months after the completion of adjuvant therapy. Other inclusion criteria included an Eastern Cooperative Oncology Group (ECOG) performance status of 0 or 1, ≥1 measurable lesion per Response Evaluation Criteria in Solid Tumors (RECIST) v1.1, and no prior exposure to immune-meditated therapy. Patients were excluded if they had ampullary carcinoma, active or prior documented autoimmune or inflammatory disorders, or known allergy or hypersensitivity to any study treatment.
TOPAZ-1 was a phase 3, randomized, double-blind, placebo-controlled, global study. Patients were randomly assigned in a 1:1 ratio to receive durvalumab in combination with gemcitabine and cisplatin or placebo in combination with gemcitabine and cisplatin.
Baseline tumor assessments were performed using images acquired≤28 days before randomization. During the study period, tumor assessments were performed every 6 weeks (±1 week) for the first 24 weeks after randomization, and then every 8 weeks (±1 week) thereafter, until radiological disease progression, followed by ≥1 additional follow-up scan. Survival assessments were performed every 2 months following treatment discontinuation. Patients on treatment or in survival follow-up were contacted following the data cutoff for the interim analysis to provide complete survival data. Newly acquired tumor biopsy samples or archival samples taken≤3 years prior to screening were obtained by an image-guided core needle or by excision from all screened patients. Tissue samples were retrospectively evaluated for programmed cell death ligand 1 (PD-L1) expression by the Ventana PD-L1 (SP263) immunohistochemistry assay in all randomized patients using the tumor area positivity (TAP) score method. “TAP” is the proportion of tumor and/or immune cells with PD-L1 staining at any intensity and can be used interchangeably with “TIP.” A TAP score of ≥1% was defined as PD-L1 staining of any intensity in tumor cell membranes and/or tumor-associated immune cells covering ≥1% of the tumor area. A TAP score of <1% was defined as PD-L1 staining of any intensity in tumor cell membranes and/or tumor-associated immune cells covering <1% of tumor area. […]

PD-L1 = PD-L1 (Homo sapiens, UniProt Q9NZQ7); conditions: in vitro; cited from earlier work
PD-L1, sequence (Q9NZQ7 19-290): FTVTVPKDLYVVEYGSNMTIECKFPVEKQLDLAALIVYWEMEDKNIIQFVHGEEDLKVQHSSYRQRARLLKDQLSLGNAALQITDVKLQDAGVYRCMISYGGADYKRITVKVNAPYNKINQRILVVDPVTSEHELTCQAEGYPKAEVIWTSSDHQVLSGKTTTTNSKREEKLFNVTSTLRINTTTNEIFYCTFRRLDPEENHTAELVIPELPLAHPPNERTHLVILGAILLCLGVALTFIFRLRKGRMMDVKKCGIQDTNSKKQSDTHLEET

xenograft model = conditions: via a T-cell dependent mechanism; cited from earlier work
[2] = patients with objective response

## Durvalumab plus Gemcitabine and Cisplatin: Durvalumab 1500 mg IV q3w with cisplatin 25 mg/m^2 and gemcitabine 1000 mg/m^2 up to 8 cycles, then durvalumab monotherapy q4w
Adverse events of any causality
  Abdominal pain upper, Grade 3/4: 0 no.
immune-mediated adverse events
  Adrenal insufficiency, Grade 3 or 4: 0 no.
  Hyperthyroid events, Grade 3 or 4: 0 no.
  Hypophysitis, Grade 3 or 4: 0 no.
  Hypothyroid events, Grade 3 or 4: 0 no.
  Myositis, Any Grade: 0 no.
  Myositis, Grade 3 or 4: 0 no.
  Pancreatic events, Grade 3 or 4: 0 no.
  Renal events, Any Grade: 0 no.
  Renal events, Grade 3 or 4: 0 no.
  Thyroiditis, Grade 3 or 4: 0 no.
[1]; at 12 months
  Difference in overall survival: 6%
[1]; at 18 months
  Difference in overall survival: 10%
[1]; at 24 months
  Difference in overall survival: 15%
[1]; full analysis set
  Median overall survival (95% CI): 12.8 months
[1]; listed as durvalumab+GemCis
  Objective response rate: 26.7%
[1]; [2]
  Median duration of response: 6.4 mo
  Median time to response: 1.6 mo
[1]; ≥3 months
  Percentage of patients with continued response: 88.9%
[1]; ≥6 months
  Percentage of patients with continued response: 59.3%
[1]; ≥9 months
  Percentage of patients with continued response: 32.6%
[1]; ≥12 months
  Percentage of patients with continued response: 26.1%

## durvalumab: antibody that selectively binds PD-L1 and blocks the binding of PD-L1 to PD-1 and CD80 receptors
PD-L1
  PD-L1-mediated suppression of human T-cell activation: can relieve PD-L1-mediated suppression of human T-cell activation
Xenograft model
  Tumor growth in a xenograft model: inhibits tumor growth
In vivo
  Additional toxicity to that observed with chemotherapy: did not add additional toxicity
  Anemia, Any Grade: 48.2%
  Any immune-mediated adverse event, Any Grade: 12.7%
  Any immune-mediated adverse event, Grade 3 or 4: 2.4%
  Constipation, Any Grade: 32.0%
  Events in the other rare/miscellaneous category of immune-mediated adverse events: immune-mediated arthritis
  Nausea, Any Grade: 40.2%
  Neutropenia, Any Grade: 31.7%
  Treatment-related adverse event leading to discontinuation of any study treatment: 8.9%
[1]; FIG. 8
  Benefit of the addition of durvalumab to gemcitabine and cisplatin, subgroup analysis of overall survival: observed across all subgroups
[1]; TAP score, Ventana PD-L1 (SP263) assay
  Benefit of the addition of durvalumab to gemcitabine and cisplatin, overall survival by PD-L1 expression: observed across PD-L1 expression; also recorded: observed regardless of PD-L1 expression
[1]; after 6 months, durvalumab versus placebo
  Overall survival hazard ratio (95% CI): 0.74 (0.58-0.94)
[1]; at 12 months
  Estimated overall survival rate (95% CI): 54.1%
[1]; at 18 months
  Estimated overall survival rate (95% CI): 35.1%
[1]; at 24 months
  Estimated overall survival rate (95% CI): 24.9%
[1]; durvalumab versus placebo, each plus gemcitabine and cisplatin, 95% CI 0.66-0.97, P=0.021
  Overall survival hazard ratio: 0.80
[1]; durvalumab versus placebo, 95% CI 0.63-0.89, P=0.001
  Hazard ratio for progression-free survival: 0.75
[1]; durvalumab versus placebo, 95% CI 1.11-2.31
  Objective response rate odds ratio: 1.60
[1]; full analysis set
  Median (95% CI) progression-free survival: 7.2 months and 7.2 (6.7-7.4) months
  Median overall survival (95% CI): 12.8 (11.1-14.0) months
[1]
  Objective response rate: 26.7%
[1]; patients with PD-L1 TAP score of >1%, durvalumab versus placebo, 95% CI 0.61-1.00
  Hazard ratio for overall survival: 0.79
[1]; patients with TAP score <1%, durvalumab versus placebo, 95% CI 0.60-1.23
  Hazard ratio for overall survival: 0.86
[1]; up to 6 months, durvalumab versus placebo
  Overall survival hazard ratio (95% CI): 0.91 (0.66-1.26)
[1]; ≥9 months
  Percentage of patients with continued response: 32.6%
[1]; ≥12 months
  Percentage of patients with continued response: 26.1%
